We go through nine molecules from US4210663A, “Halogen substituted benzopyran- and benzothiopyran-4-carboxylic acids” (Pfizer Inc., priority 1978, dated 1980).

In this assay the target is T1, aldose reductase (Bos taurus, UniProt P16116).
T1 construct: partially purified aldose reductase enzyme obtained from calf lens; from tissue; host or cells: calf lens
Put plainly: inhibition of aldose reductase enzyme activity (procedure of U.S. Pat. No. 3,821,383, based on Hayman et al.). The format is biochemical. Conditions: partially purified aldose reductase from calf lens, / = results of duplicate tests; for inhibition at 100 µM: 10^-4 M. An excerpt: Pat. No. 3,821,383 and based on the procedure of Hayman et. al., Journal of Biological Chemistry, 240, 877 (1965). The substrate employed was partially purified aldose reductase enzyme obtained from calf lens. The results obtained with each compound at a concentration of 10^-4 M are expressed as percent inhibition of enzyme activity.

As usually defined, the inhibition is the drop in the measured response relative to a control, in per cent. For orientation: % Inhibition means the percentage by which the read-out fell short of the control. A low value points to a weak effect. Consider `O=C(O)C1CCOc2c(Cl)cc(-c3ccccc3)cc21` (stereo not drawn) [Example 2, 6-phenyl-8-chloro-3,4-dihydro-2H-1-benzopyran-4-carboxylic acid], for which the inhibition at 100 µM was 74% and the “% Inhibition at 10^-4 M (aldose reductase enzyme activity)” value was 67%. The corresponding values for `O=C(O)C1CCSc2cc(Cl)c(Cl)cc21` (stereo not drawn) [Example 4, 6,7-dichloro-3,4-dihydro-2H-1-benzothiopyran-4-carboxylic acid] are 92% and 76%. For `Cc1cc(Cl)cc2c1OCCC2C(=O)O` (stereo not drawn) [Example 6, 6-chloro-8-methyl-3,4-dihydro-2H-1-benzopyran-4-carboxylic acid] the same measures were 87% and 89%. For `O=C(O)C1CCOc2c(Cl)cc(Cl)cc21` (stereo not drawn) [Example 8, 6,8-dichloro-3,4-dihydro-2H-1-benzopyran-4-carboxylic acid] the same measures were 82% and 89%.

As to `O=C(O)C1CCOc2ccc(F)cc21` (stereo not drawn) [Example 10, 6-fluoro-3,4-dihydro-2H-1-benzopyran-4-carboxylic acid], 100 µM produced 71% inhibition. In the case of `O=C(O)C1CCOc2ccc(Cl)cc21` (stereo not drawn) [Example 12, 6-chloro-3,4-dihydro-2H-1-benzopyran-4-carboxylic acid], the inhibition at 100 µM was 85% and the “% Inhibition at 10^-4 M (aldose reductase enzyme activity)” value is listed as 81%. The corresponding values for `O=C(O)C1CCOc2c1cc(Cl)c1ccccc21` (stereo not drawn) [Example 14, 6-chloro-3,4-dihydro-2H-naphtho[1,2-b]pyran-4-carboxylic acid] are 88% and 90%. Molecule `O=C(O)C1CCSc2ccc(Cl)cc21` (stereo not drawn) [Example 16, 6-chloro-3,4-dihydro-2H-1-benzothiopyran-4-carboxylic acid] registered an inhibition at 100 µM of 70%. Same read-out and setting: the value for `O=C(O)CC1CCOc2ccc(Cl)cc21` (stereo not drawn) [Example 18, 6-chloro-3,4-dihydro-2H-1-benzopyran-4-acetic acid] was 69%.
